Like-named read-outs stand apart in the source and are kept apart here.
How the values were obtained:
AD mice = assay: Morris water maze test, comparison with anti-AD drugs; format: in vivo; settings: AD mice aged 13 months
Experimental: Two known anti-AD drugs named […] memantine were administered separately to the mice. For these experiments, mice were tested for effects on memory and learning using the Morris water maze test, essentially as described in the previous example.

[1] = Magnesium absorption rate in rats (metabolic cages, urine and feces magnesium by ICP-AES); settings: Example 5, gluconate in skim milk or 5 weight percent lactose water, chloride in water
Experimental: Fifty 3-month old, male Sprague Dawley (SD) rats were divided into five groups of ten rats. Rats of this age and older are considered adult. Each of the rats was placed in a separate metabolic cage equipped with urine- and feces-collecting wells. All of the rats were maintained in a temperature-controlled room (22° C. to 25° C.) with a dark period from 08:00 pm to 08:00 am daily. From day 1 through day 3, each rat was fed daily 15 g of magnesium-free food and de-ionized water. […] The medium was skim milk for Composition 1 and Group 1, milk prepared from powdered milk, by diluting the powdered milk with water to obtain a composition like that of skim milk, for Composition 2 and Group 2, 1% milk cream in water for Composition 3 and Group 3, water comprising 5 weight percent lactose for Composition 4 and Group 4, and water for the Control Composition and Control Group. […] From day 11 through day 12, each rat was fed daily 15 g of magnesium-free food and de-ionized water.
From day 4 through day 10, urine from each rat was collected daily. The collected urine from each rat was then pooled together and the total volume of the pooled urine from each rat was recorded. The pooled urine from each rat, in an amount of […], was analyzed for magnesium content using an inductively coupled plasma-atomic emission spectrometer (ICP-AES). From day 5 to day 11, feces from each rat were collected daily. The collected feces from each rat were pooled together and the pooled feces were weighed and homogenized. The pooled feces from each rat, in an amount of 0.5 g, were analyzed for magnesium content using an ICP-AES.
A formula was used to calculate a magnesium absorption rate for each rat. The formula used was Y=AX−B, wherein X was the average total daily magnesium intake, Y was the average net daily amount of magnesium absorbed, as calculated by X minus the average daily amount of magnesium excreted from feces, B was the average daily amount of magnesium excreted from feces when the magnesium intake was zero, and the slope A represented the magnesium absorption rate. Data points (X, Y) associated with each rat in each group often rats, with the exception of the best points and the worst points, were plotted. The value of A, the magnesium absorption rate, associated with each of Groups 1-4, and thus with each of the Compositions 1-4, was then obtained using linear regression. The value of A, the magnesium absorption rate, associated with the Control Group, and thus with the Control Composition, was also obtained using linear regression, and relabeled as A0. […]

diabetic patients = settings: nearly 1 g of magnesium daily for 1 month; cited from earlier work
[2] = test system: young (9-month old) and aged (25-month old) rats; settings: food containing 2% for 8 days, cited from earlier work
aging rats = test system: aging rats
Experimental: Three groups of animals (young, aging, and magnesium-treated aging rats) were used. […] Spatial working memory was assessed using a T-maze non-matching-to-place task. […] Spatial working memory was first assessed on an elevated T-maze. The maze was located 1 m above the floor in a well lit laboratory that contained various prominent distal extra-maze cues. The rats were handled and habituated to the maze for 10 days, and to Froot Loop® cereal over several days before the test. Each trial consisted of a sample run and a choice run, with delay intervals of 15 s during the training and the pattern completion tasks. On the sample run, the rats were forced either left or right by the presence of the block, according to a pseudorandom sequence (with equal numbers of left and right turns per session, and with no more than two consecutive turns in the same direction). A cereal reward was available in the food well at the end of the arm. The block was then removed, and the rat was allowed a free choice of either arm. The animal was rewarded for choosing the previously unvisited arm. Rats were run one trial at a time with an inter-trial interval of 10 min. Each daily session consisted of 6 trials.
The rats were tested for 10 consecutive days on a rewarded forced-choice alternation task. The percentage of correct choices (alternations) was recorded for each daily session. […] Then, spatial working memory was tested by a gradual increase of the delay between the sample and the choice trials (FIG. 10, right panel).

[3] = test system: aging rats (12-14 months old); settings: for novel object exploration preference: single training
Experimental: In this example, the effect of magnesium supplementation on recognition memory was tested. Three groups of rats were used in these experiments: 1) young rats (three months old); aging rats (12-14 months old), and; 3) magnesium-treated aging rats (12-14 months old, diet supplemented with 6 mg/kg MgCl2 from 8 months of age). We used experimentally naive, female, Sprague-Dawley young […], aging (12-14 month old) and […] rats (Charles River) at the beginning of the behavior experiments. They were housed two per cage with continuous access to food and water under a 12:12 light-dark cycle, with light onset at 8:00 a.m. […] All experiments involving animals were approved by the Massachusetts Institute of Technology's and Tsinghua University Committees on Animal Care.
The three groups of rats were tested for recognition memory using an object recognition test with a single exposure to the object during training. The task is based on the natural tendency of rodents to explore new objects and tests the animals' memory capacity for distinguishing novel versus familiar objects.
Briefly, the rats were first individually habituated to the personnel and then to open-field arena during 2 weeks. The rats were then allowed to explore two identical objects placed into the arena at fixed locations until they had accumulated 30 s of total inspection time (where this is defined as active exploration, sniffing or touching the object with the nose and/or forepaws) or for a maximum of 20 min. The rat was returned to the arena for the retention test and allowed to explore for another 30 sec. The retention intervals were 10 min and 24 hours. Objects were cleaned thoroughly between trials with 20% ethanol solution to ensure the absence of olfactory cues. The particular objects for a given trial were randomly determined, but each object was used for only one trial per rat. Memory of the familiar object is associated with increased exploration of the new object and an exploration index (% correct) is calculated as new object inspection time/30. […]

[4] = relatively high magnesium dosage
[5] = relatively low magnesium dosage

Compound: COc1cc2c(cc1OC)C(=O)C(CC1CCN(Cc3ccccc3)CC1)C2 (stereo not drawn) [aricept]
- reducing the effects of AD on learning capacity (AD mice): both being better at reducing the effects of AD on learning capacity than aricept

Compound: magnesium gluconate
- magnesium absorption rate [1, 4]: suitably close to those associated with the lower dosage compositions
- magnesium absorption rate [1, 5]: suitable magnesium absorption rates

Compound: [O]=[Mg] [magnesium oxide]
- metabolic control (diabetic patients): only minor improvement in metabolic control
- side-effect [2]: diarrhea and weight loss
- cognitive function ([2]; gain transient): some sign of improvement of cognitive function

Compound: [Cl-].[Cl-].[Mg+2] [magnesium chloride]
- magnesium absorption rate [1, 4]: less desirable
- magnesium absorption rate [1, 5]: suitable, but lower
- spatial working memory with increased delay (aging rats; 2 and 5 min delays, p<0.05): significantly enhanced the performance of the aging rats at 2 and 5 min delays
- percentage of correct choices during training (aging rats; 15 sec delay, versus untreated aging rats, p<0.05): performed significantly better from their first trials
- asymptotic choice accuracy level (aging rats; after 8 days of training, all three groups): ~94%
- novel object exploration preference ([3]; 10 minute retention interval, aging rats, 6 mg/kg from 8 months of age): preferentially explored the novel object to the same extent as young rats
- novel object exploration preference ([3]; 24 hours retention interval): lose there ability to distinguish novel versus familiar objects
- novel object preference ([3]; two training sessions separated by 10 minutes, 24-hour retention interval): retained a high level of preference

Compound: CC12CC3CC(C)(C1)CC(N)(C3)C2 [memantine]
- reducing the effects of AD on learning capacity (AD mice): better at reducing the effects of AD on learning capacity than aricept
